Test results taken from ChEMBL document CHEMBL5729264, “Bicyclic compounds” (2022).

Assay: Dual-Glo Luciferase Assay: The Dual-Glo Luciferase Reagent was prepared by transferring the contents of one bottle of Dual-Glo Luciferase Buffer to one bottle of Dual-Glo Luciferase Substrate to create the Dual-Glo Luciferase Reagent. Mixing was performed by inversion until the substrate was thoroughly dissolved. After mixing, the reagent was aliquoted into 15 ml tubes. In the afternoon (24 hrs post compound treatment), the DMEM+medium in the 384 well plates were aspirated by Microplate Washer.Measuring firefly luciferase activity: 20 ul Dual-Glo Luciferase Reagent was added to the 384-well plates. The plates were protected from light to prevent interference with the assay. The plates were shaken for 1 min followed centrifuging plates at 1000 rpm for 30 seconds. After waiting at least 10 minutes, the firefly luminescence was measured by Envision.Measuring renilla luciferase activity: 20 ul Stop-Glo Reagent was added to the 384-well plates. The plates were shaken for 1 min and then centrifuged at 1000 rpm for 30 seconds. After waiting at least 10 minutes, the renilla luminescence was measured by Envision.Compound IC50 and maximum inhibition on the firefly luciferase and renilla luciferase activities were reported separately.

Row | SMILES | IC50
1 | O=C(N[C@H](CO)C1CNC1)c1ccc2c(Oc3ccc(C(F)(F)F)cc3)cccc2c1 | in the range around 550 nM
2 | CCN1CC([C@H](C)NC(=O)c2ccc3c(Oc4ccc(C(F)(F)F)cc4)cccc3c2)C1 | in the range around 550 nM
3 | C[C@@H](NC(=O)c1ccc2c(Oc3ccc(C(F)(F)F)cc3)cccc2c1)C1CCN(CC(F)F)CC1 | in the range around 550 nM
4 | C[C@H](NC(=O)c1ccc2c(Oc3ccc(C(F)(F)F)cc3)cccc2c1)c1cc(N(C)C)ccn1 | in the range around 550 nM
5 | C[C@H](NC(=O)c1ccc2c(Oc3ccc(C(F)(F)F)cc3)cccc2c1)C1CN(CCO)C1 | in the range around 550 nM
6 | C[C@@H](NC(=O)c1ccc2c(Oc3ccc(C(F)(F)F)cc3)cccc2c1)C1CCC1 | < 100 nM
7 | O=C(NC1(c2ccccc2)COC1)c1ccc2c(Oc3ccc(C(F)(F)F)cc3)cccc2c1 | < 100 nM
8 | O=C(N[C@H](CO)c1ccccn1)c1ccc2c(Oc3ccc(C(F)(F)F)cc3)cccc2c1 | < 100 nM
9 | CC(C)NC(=O)c1ccc2c(Oc3ccc(F)c(F)c3)cccc2c1 | < 100 nM
10 | CC(C)N1CC([C@@H](C)NC(=O)c2ccc3c(Oc4ccc(C(F)(F)F)cc4)cccc3c2)C1 | in the range around 2000 nM
11 | CC(C)NC(=O)c1cnc2c(Oc3ccc(C(F)(F)F)cc3)cc(F)c(F)c2c1 | < 100 nM
12 | C[C@@H](NC(=O)c1ccc2c(Oc3ccc(C(F)(F)F)cc3)cccc2c1)C1(O)CNC1 | < 100 nM
13 | CNS(=O)(=O)c1ccc2c(Oc3ccc(C(F)(F)F)cc3)cccc2c1 | < 100 nM
14 | NS(=O)(=O)c1ccc2c(Oc3ccc(C(F)(F)F)cc3)cccc2c1 | < 100 nM
15 | C[C@H](NC(=O)c1ccc2c(Oc3ccc(C(F)(F)F)cc3)cccc2c1)C1COC1 | < 100 nM
16 | COc1cc(Oc2ccc(C(F)(F)F)cc2)c2ncc(C(=O)NC(CO)c3ccccn3)cc2c1 (centres undefined) | < 100 nM
17 | C[C@@H](NC(=O)c1ccc2c(Oc3ccc(C(F)(F)F)cc3)cccc2c1)c1cccnc1N | in the range around 2000 nM
18 | C[C@H](NC(=O)c1cnc2c(Oc3ccc(C(F)(F)F)cc3)cccc2c1)c1cccc2nc[nH]c12 | < 100 nM

Other lines, results leading:

Row | IC50 | SMILES
19 | < 100 nM | C#C[C@@H](C)NC(=O)c1ccc2c(Oc3ccc(C(F)(F)F)cc3)cccc2c1
20 | < 100 nM | C[C@H](CO)NC(=O)c1ccc2c(Oc3ccc(C(F)(F)F)cc3)nccc2c1
21 | < 100 nM | C[C@H](CCNCC(F)F)NC(=O)c1ccc2c(Oc3ccc(C(F)(F)F)cc3)cccc2c1
22 | < 100 nM | CC(C)NC(=O)c1ccc2c(Oc3cccc(Cl)c3)cccc2c1
23 | < 100 nM | CC(C)NC(=O)c1cc2cccc(Oc3ccc(C(F)(F)F)cc3)c2s1
24 | < 100 nM | C[C@H](NC(=O)c1ccc2c(Oc3ccc(C(F)(F)F)cc3)cccc2c1)c1ccccn1
25 | < 100 nM | C[C@@H](NC(=O)c1ccc2c(Oc3ccc(C(F)(F)F)cc3)cccc2c1)c1cccc2ccc(=O)[nH]c12
26 | < 100 nM | CC(C)NC(=O)c1ccc2c(Oc3ccc(C(F)(F)F)cc3)cncc2c1
27 | < 100 nM | CC#C[C@H](C)NC(=O)c1ccc2c(Oc3ccc(C(F)(F)F)cc3)cccc2c1
28 | < 100 nM | C#C[C@H](C)NC(=O)c1ccc2c(Oc3ccc(C(F)(F)F)cc3)cccc2c1
29 | < 100 nM | CC(C)NC(=O)c1ccc2c(Oc3ccc(C(F)(F)F)cc3)cccc2c1
